This is an account of results in patent US20260258039A1, “AROMATIC COMPOUND, METHOD FOR PREPARING SAME, AND USE THEREOF IN PREPARATION OF ESTROGEN RECEPTOR DEGRADER” (Hinova Pharmaceuticals Inc., priority 2022, published 2026).

pIC50: −log10 of the molar value. Where two headings read alike, the source gives them in different places.

Data set [1] can be described thus: Pharmacokinetics in female ICR mice. The following applies: plasma; for AUCinf (μg*h/mL) / T1/2 (h) / AUC(0-inf): oral administration 3 mg/kg, female ICR mice; for half-life / AUC(0-inf): female, ICR, mouse, po; for AUC(0-inf): AUCinf (μg*h/mL).
Method: Pharmacokinetic experimental steps: A suitable amount of compound to be administered was weighed, and after the final volume required was calculated, a drug solution with corresponding concentration was prepared using the medium (DMSO/HS-15/Tween 80/D5W (5:5:2:88, v/v/v/v)). For intravenous administration, each drug was administered to 9 animals (female ICR mice, provided by Chengdu Dossy Experimental Animal Co., Ltd.) at a dose of 1 mg/kg (drug volume of 10 mL/kg, drug concentration of 0.1 mg/mL). After administration, samples were alternately collected from three animals of each group at time points of 5 min, 15 min, 30 min, 1 h, 2 h, 4 h, 8 h, 12 h, and 24 h. For oral gavage, each drug was administered to 9 animals (female ICR mice) at a dose of 3 mg/kg (drug volume of 10 mL/kg, drug concentration of 0.3 mg/mL). After administration, samples are alternately collected from three animals of each group at time points of 15 min, 30 min, 1 h, 2 h, 4 h, 6 h, 8 h, 12 h, and 24 h. The samples were anticoagulated with EDTA-K2 and centrifuged at 4° C. for 5 min to separate the plasma. The plasma samples were vortexed and mixed. A suitable amount of internal standard working solution was added to the 96-well plate containing samples used for plotting standard curve, samples used for quality control, or samples to be tested; A suitable amount of methanol was added to the blank sample, vortexed and mixed thoroughly, and then centrifuged for 15 min before the supernatant was collected and injected to LC-MS/MS for analysis. The plasma concentration at each time point was used to calculate the main pharmacokinetic parameters using the Winnolin 8.3 non-compartmental model.
In data set [2] the target is T1, ER (Homo sapiens, UniProt P03372).
T1 construct: T47D breast cancer cells were subcultured in cell culture medium; endogenous in cells; host or cells: T47D breast cancer cells
T1 sequence (P03372 1-595): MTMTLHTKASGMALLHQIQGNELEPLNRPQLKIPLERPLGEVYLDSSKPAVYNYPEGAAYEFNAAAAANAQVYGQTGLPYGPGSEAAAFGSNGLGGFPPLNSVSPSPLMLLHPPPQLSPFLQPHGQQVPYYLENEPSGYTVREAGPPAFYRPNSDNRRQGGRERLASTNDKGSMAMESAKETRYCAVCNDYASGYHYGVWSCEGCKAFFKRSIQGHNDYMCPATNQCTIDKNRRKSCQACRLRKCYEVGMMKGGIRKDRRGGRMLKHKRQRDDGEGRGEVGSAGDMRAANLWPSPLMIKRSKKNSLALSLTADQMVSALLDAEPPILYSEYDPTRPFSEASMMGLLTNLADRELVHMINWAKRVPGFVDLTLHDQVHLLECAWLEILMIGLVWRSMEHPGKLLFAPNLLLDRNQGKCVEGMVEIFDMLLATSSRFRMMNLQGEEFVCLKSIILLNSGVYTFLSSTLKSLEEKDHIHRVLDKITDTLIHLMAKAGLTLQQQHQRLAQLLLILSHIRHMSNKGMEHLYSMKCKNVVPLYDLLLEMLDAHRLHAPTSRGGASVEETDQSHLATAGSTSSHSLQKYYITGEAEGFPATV
As to the kind of experiment: Degradation activities on ER (ELISA) in T47D breast cancer cells. The following applies: T47D cells, 24 h, ELISA; for DC50: concentration required to degrade 50% of the target protein; for Dmax: maximum percentage of target protein degraded. It counts as cell-based. In outline:
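T47D cells were seeded at 2.5×10^4/well, grown 3 days at 37 °C, 5% CO2, then exposed 24 h to compound at 100, 25, 6.25, 1.56, 0.39 and […] nM (final). ER protein was quantified by sandwich ELISA with HRP/TMB read at 450 nm, and DC50 and Dmax came from dose-response fits.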
On the technique in general: An ELISA detects its analyte on a solid surface through an enzyme-linked reagent.

In data set [3] the test system is MCF-7 breast cancer cells. Description: Inhibition of proliferation of MCF-7 breast cancer cells (agarose culture, CellTiter-Glo 3D). It counts as cell-based. Conditions: MCF-7 cells, 15 days of cultivation, read-out: IC50. (In general: ATP-based viability assays read luminescence as a measure of living cells.)
The target in data set [4] is T1, ER. As to the kind of experiment: Degradation activities on ER (Western blotting) in T47D breast cancer cells. It counts as cell-based. The following applies: Western blot; for Percentage reduction of ER: 24 h. Summed up:
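T47D cells seeded 2.5×10^5/well, grown overnight, then treated 24 hours with compound (0.1% DMSO) in duplicate. ERα level measured by Western blot of 30 μg lysate protein, with GAPDH as loading control and ECL chemiluminescence detection.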
(In general: In western blotting, separated proteins are transferred to a membrane and probed.)

Data set [5] concerns MCF-7 breast cancer cells. Description: Pharmacodynamic experiment in mouse models of human breast cancer (MCF-7 tumors). It counts as in vivo, NOD/SCID female mice. Conditions: dose 10 mg/kg, once-daily oral gavage. The protocol: MCF-7 breast cancer cells were cultured in MEM medium containing 10% FBS, 0.01 mM NEAA, and 10 µg/mL insulin. MCF-7 cells in the exponential growth phase were collected and resuspended in PBS to a suitable concentration for subcutaneous injection into mice. The experimental animals were NOD/SCID female mice (purchased from GemPharmatech Co. Itd, Jiangsu). Before inoculation of tumor cells, a 0.36 mg/60-day slow-release estrogen tablet (17β-estradiol, Innovative Research of America, Sarasota, Florida, USA) was subcutaneously implanted on the right side of the back of the experimental animals. The day after estrogen tablet implantation, 2×10^7 MCF-7 cells were inoculated into the right mammary fatty pad of the experimental mice, wherein the cells were resuspended in PBS and Matrigel (1:1) (0.2 mL/mouse). The tumor growth was regularly observed.
When the tumors in the tumor-bearing mice grew to an average volume of approximately 245.56 mm^3, they were randomly grouped for administration based on tumor size. Grouping was performed using StudyDirector™ (version 3.1.399.19, supplier Studylog System, Inc., S. San Francisco, CA, USA). […]
After starting drug administration, the body weight and tumor size of mice were measured twice a week. […] The raw data were directly imported into the software after being measured using a balance and vernier caliper. […]

One may read the DC50 as the concentration at which degradation of the target reaches its halfway point. As usually defined, the Dmax is the largest share of the target that was removed. In general, pIC50 refers to the negative decadic logarithm of the IC50, by convention in mol/L. In the case of `O=C1CCC(N2Cc3cc(N4CC5(CCN(CC6CCN(c7ccc([C@@H]8c9ccc(O)cc9OC[C@@H]8c8c(F)cccc8F)cc7F)CC6)CC5)C4)ccc3C2=O)C(=O)N1` (stereo partly drawn) [Example 70, 3-(5-(7-((1-(4-((3S,4R)-3-(2,6-difluorophenyl)-7-hydroxychroman-4-yl)-2-fluorophenyl)piperidin-4-yl)methyl)-2,7-diazaspiro[3.5]nonane-2-yl)-1-oxoisoinodolin-2-yl)piperidin-2,6-dione], in data set [1], the “AUCinf (μg*h/mL)” value is reported as “A (A: > 2.5 μg*h/mL)” and the “T1/2 (h)” value is given as “A (A: >3.5 h)”. Further, on ER [2], the DC50 is under 10 nM and the Dmax result is “B (B: 75-50%)”. In addition, in data set [3], the pIC50 is over 8.00.
As to `O=C1CCC(N2Cc3cc(N4CC5(CCN(CC6CCN(c7ccc([C@@H]8c9ccc(O)cc9OC[C@@H]8c8ccccc8F)cc7)CC6)CC5)C4)ccc3C2=O)C(=O)N1` (some centres unmarked) [Example 30], in data set [1], the “AUCinf (μg*h/mL)” value is given as “B (B: 1.4-2.5 μg*h/mL)” and the “T1/2 (h)” value is on record as “A (A: >3.5 h)”. The molecule also came in with a DC50 on ER [2] of under 10 nM. Besides, on ER [2] (read-out: Dmax), the Dmax was in the range of 50 to 75%. Besides, the “Percentage reduction of ER” value on ER [4] (compound concentration 1 nM) is on record as 62%. The pIC50 in data set [3] (Homo sapiens, MCF7, 360 h) is over 8.00.
Broadly, the half-life is the time needed for the level to fall by half in the phase considered. High values mean slow loss, low ones fast loss. Broadly, the AUC(0-inf) is total exposure, with the tail of the curve extrapolated. Lower therefore signals less exposure. In the case of `O=C1CCC(N2Cc3cc(N4CC5(CCN(CC6CCN(c7c(F)cc([C@@H]8c9ccc(O)cc9OC[C@@H]8c8ccccc8F)cc7F)CC6)CC5)C4)ccc3C2=O)C(=O)N1` (stereo partly drawn) [Example 32, 3-(5-(7-((1-(2,6-difluoro-4-((3,4-cis)-3-(2-fluorophenyl)-7-hydroxybenzodihydropyran-4-yl)phenyl)piperidin-4-yl)methyl)-2,7-diazaspiro[3.5]nonane-2-yl)-1-oxoisoinodolin-2-yl)piperidin-2,6-dione], in data set [1] (3 mg/kg), the half-life is over 3.5 h and the AUC(0-inf) lay in the range of 1400 to 2500 ng·h/mL. For the same molecule, the DC50 at ER [2] was under 10 nM. For the same molecule, the maximal degradation (Dmax) on ER [2] (read-out: Dmax) lay within 50 to 75%. The “Percentage reduction of ER” value at ER [4] (compound concentration 10 nM) worked out at 81%. Besides, in data set [3] (Homo sapiens, MCF7, 360 h), the pIC50 was over 8.00.
In data set [1] (3 mg/kg), `O=C1CCC(N2Cc3cc(N4CC5(CCN(CC6CCN(c7ccc([C@@H]8c9ccc(O)cc9OC[C@@H]8c8c(F)cccc8F)cc7)CC6)CC5)C4)ccc3C2=O)C(=O)N1` (some centres unmarked) [Example 63, 3-(5-(7-((1-(4-(3-(2,6-difluorophenyl)-7-hydroxyl-chroman-4-yl)phenyl)piperidin-4-yl)methyl)-2,7-diazaspiro[3.5]nonane-2-yl)-1-oxoisoinodolin-2-yl)piperidin-2,6-dione] displayed a half-life of over 3.5 h and an AUC(0-inf) of over 2500 ng·h/mL. For the same molecule, the Dmax on ER [2] (read-out: Dmax) is 50 to 75%. In addition, the “Percentage reduction of ER” value at ER [4] (compound concentration 10 nM) is given as 51%. Besides, the pIC50 in data set [3] (Homo sapiens, MCF7, 360 h) is over 8.00.
Take `O=C1CCC(N2Cc3cc(N4CC5(CCN(CC6CCN(c7c(F)cc([C@@H]8c9ccc(O)cc9OC[C@@H]8c8c(F)cccc8F)cc7F)CC6)CC5)C4)ccc3C2=O)C(=O)N1` (some centres unmarked) [Example 37]: in data set [1] (3 mg/kg), the half-life is over 3.5 h and the AUC(0-inf) was over 2500 ng·h/mL. In addition, the DC50 at ER [2] is under 10 nM. For the same molecule, the Dmax at ER [2] (read-out: Dmax) lay within 50 to 75%.
With `O=C1CCC(N2Cc3cc(N4CC5(CCN(CC6CCN(c7ccc([C@@H]8c9ccc(O)cc9OC[C@@H]8c8c(F)cccc8F)cc7F)CC6)CC5)C4)ccc3C2=O)C(=O)N1` (some centres unmarked) [Example 65, 3-(5-(7-((1-(4-(3-(2,6-difluorophenyl)-7-hydroxyl-chroman-4-yl)-2-fluorophenyl)piperidin-4-yl)methyl)-2,7-diazaspiro[3.5]nonane-2-yl)-1-oxoisoinodolin-2-yl)piperidin-2,6-dione], in data set [1] (3 mg/kg), the half-life was over 3.5 h and the AUC(0-inf) is over 2500 ng·h/mL. The DC50 at ER [2] was under 10 nM. The Dmax at ER [2] (read-out: Dmax) was 50 to 75%. Besides, the pIC50 in data set [3] (Homo sapiens, MCF7, 360 h) was 7.30 to 7.96.
With `O=C1CCC(N2Cc3cc(N4CCN(CC5CCN(c6ccc([C@@H]7c8ccc(O)cc8CC[C@@H]7c7ccccc7)cc6)CC5)CC4)ccc3C2=O)C(=O)N1` (some centres unmarked) [Control compound X, reference compound], in data set [1] (3 mg/kg), the half-life was 2.3 h and the AUC(0-inf) turned out to be 1300 ng·h/mL. In addition, in data set [5] (day 28), the “TGI (tumor growth inhibition)” value is on record as 29%. The same molecule yielded an average tumor volume in data set [5] (end of experiment (day 28)) of 362 mm^3.
In the case of `O=C1CCC(N2Cc3cc(N4CC5(CCN(CC6CCN(c7ccc([C@@H]8c9ccc(O)cc9OC[C@@H]8c8c(F)cccc8F)cc7)CC6)CC5)C4)ccc3C2=O)C(=O)N1` (stereo partly drawn) [Example 73, 3-(5-(7-((1-(4-((3S,4R)-3-(2,6-difluorophenyl)-7-hydroxychroman-4-yl)phenyl)piperidin-4-yl)methyl)-2,7-diazaspiro[3.5]nonane-2-yl)-1-oxoisoindol-2-yl)piperidin-2,6-dione], the “T1/2 (h)” value in data set [1] is on record as “A (A: >3.5 h)”. Moreover, the “AUCinf (μg*h/mL)” value in data set [1] (3 mg/kg) was “B (B: 1.4-2.5 μg*h/mL)”. Besides, the Dmax entry at ER [2] is “B (B: 75-50%)”. For the same molecule, the pIC50 in data set [3] was over 8.00.
With `O=C1CCC(N2C(=O)c3ccc(N4CC5(CCN(CC6CCN(c7ccc([C@@H]8c9ccc(O)cc9OC[C@@H]8c8ccccc8)cc7)CC6)CC5)C4)cc3C2=O)C(=O)N1` (stereo partly drawn) [Example 81, 2-(2,6-dioxopiperidin-3-yl)-5-(7-((1-(4-((3S,4R)-7-hydroxyl-3-phenylchroman-4-yl)phenyl)piperidin-4-yl)methyl)-2,7-diazaspiro[3.5]nonane-2-yl)isoinodolin-1,3-dione], the DC50 on ER [2] fell in the range of 10 to 50 nM. Besides, the Dmax on ER [2] (read-out: Dmax) fell in the range of 50 to 75%. The “ER degradation activity (in words)” value on ER [4] is given as “good ER degradation activity”. For the same molecule, the “Percentage reduction of ER” value at ER [4] (compound concentration 10 nM) was 82%. In data set [3] (Homo sapiens, MCF7, 360 h), the pIC50 was 7.30 to 7.96.
On to `O=C1CCC(N2Cc3cc(N4CC5(CCN(CC6CCN(c7ccc([C@@H]8c9ccc(O)cc9OC[C@@H]8c8ccccc8F)cc7)CC6)CC5)C4)ccc3C2=O)C(=O)N1` (stereo partly drawn) [Example 89, 3-(5-(7-((1-(4-((3S, 4R)-3-(2-fluorophenyl)-7-hydroxychroman-4-yl)phenyl)piperidin-4-yl)methyl)-2,7-diazaspiro[3.5]nonane-2-yl)-1-oxoisoinodolin-2-yl)piperidin-2,6-dione], for which, in data set [1] (3 mg/kg), the half-life was over 3.5 h and the AUC(0-inf) was 1400 to 2500 ng·h/mL. For the same molecule, on ER [2], the DC50 was under 10 nM and the Dmax result is given as “B (B: 75-50%)”. Moreover, on ER [4] (compound concentration 1 nM), the “Percentage reduction of ER” value is 52%. Besides, the pIC50 in data set [3] is over 8.00.
